In patent US9782411B2, “{4-[5-(3-chloro-phenoxy)-oxazolo[5,4-d]pyrimidin-2-yl]-2,6-dimethyl-phenoxy}-acetic acid for use in the prevention or treatment of acute kidney injury” (Sanofi, priority 2013, dated 2017):
Like-named read-outs stand apart in the source and are kept apart here.

How the values were obtained:
[1] = system: isolated rabbit Purkinje fibers; assay: Rabbit Purkinje fibers assay
Procedure: The effects of compound A on resting membrane potential and action potential parameters recorded from isolated rabbit Purkinje fibers (male, New Zealand rabbits; 1.3 to 1.5 kg; 9-12 weeks of age) were evaluated through a microelectrode technique. […] The fibers were superfused with an oxygenated physiological solution containing (in mmol/L): NaCl, 120; KCl, 4; MgCl2, 1; NaH2PO4, 1.8; NaHCO3, 25; glucose, 11; CaCl2, 1.8; pH=7.4, at 36±1° C. Compound A was first dissolved into DMSO to obtain a 12 mmol/L stock solution. This solution was further diluted into DMSO and then added into the physiological solution to obtain the appropriate nominal concentrations of 0.3, 1, 3, 10 and 30 μmol/L (i.e., 0.1, 0.5, 1.4, 4.5 and 13.6 μg/mL of active ingredient, respectively). The final concentration of DMSO in the test formulation was kept constant at 0.25% (v/v) in the physiological solution. Purkinje fibers (n=4) were first superfused by the physiological solution. After a 30-minute control period, test compound was evaluated at increasing concentrations sequentially applied, every 30 minutes. For each tested concentration, the fibers were stimulated at the basal rate of 1 pulse per second (1 Hz). […]

[2] = system: conscious telemetered dogs; assay: Dog telemetry study (cardiovascular function); assay type: in vivo
Text: The purpose of this study was to assess the potential effect of compound A on the cardiovascular function (blood pressure, heart rate and ECG) in conscious telemetered dogs over a 24-hour period post dosing.
Conscious freely moving dogs (Marshall Farms, n=4, 2 males and 2 females, 6.9 to 10.8 kg body weight and 44 to 64-months) received an oral or intravenous dose of the negative control article (i.e., aqueous solution of 0.5% (w/w) hydroxyethylcellulose/0.6% (w/w) polysorbate 80 for oral route, or aqueous solution of 20% Captisol, pH 7.5 to 8) followed by compound A at 30 and 100 mg/kg for oral route as suspensions in negative control article, or 10 and 30 mg/kg for i.v. route as solution in negative control article, according to a rising dose study design with at least a 4-day washout period between each administration (5 mL/kg for oral route or for 30-min infusion into the jugular vein). Arterial blood pressure and lead II ECG signals (Transmitters from Data Science, USA) were continuously recorded on each treatment day from approximately 2 hours before dosing up to 24 hours after dosing. The following parameters were analyzed at several time points: arterial blood pressure (systolic, diastolic and mean), heart rate, electrocardiographic parameters of RR, PQ (=PR), QT interval durations and QRS complex duration as well as body temperature. […]

pERK and pAKt = assay: Akt and ERK1/2 phosphorylations in RPTEC cells; assay type: cell-based; settings: Homo sapiens, read-out: EC50 induction of pERK and pAKt in RPTEC
Procedure: RPTEC cells (Lonza) were seeded at 0.3×10^6 cells per well in 6 multiwell plates in 2 mL per well complete REBM/REGM medium (Lonza) for 24 hours. Cells were starved […] for an additional 24 hour period in 900 μL quiescent medium. Increasing concentrations of compound A (10×) were added under the volume of 100 μL in each well for 10 minutes at 37° C. When used, tunicamycin (100 μL) was added 30 min prior to compound A addition. After medium removal, cells were rinsed with cold PBS and lysed on ice in 100 μL cold RIPA buffer containing 1% triton, proteases and phosphatases inhibitors. For western blotting, 30 μg of total protein lysate were loaded in 4-12% bis-tris gels (Invitrogen). Following migration and transfer, nitrocellulose membranes were probed with anti phospho-Akt (Phospho-Ser473, Cst #9271) and anti phospho-Erk1/2 (phopsho-Tyr202/Tyr204, Cst #4377). Tubuline labelling with anti α-Tubuline (Cst #2144) was used for normalization after densitometric analysis of the films.

[3] = Pharmacokinetics in beagle dog; settings: in vivo, po, 3 mg/kg p.o.

Q: Which “Effect on action potential” value ([1]; 26 μM) does the source give for Cc1cc(-c2nc3cnc(Oc4cccc(Cl)c4)nc3o2)cc(C)c1OCC(=O)O [Compound A, {4-[5-(3-chloro-phenoxy)-oxazolo[5,4-d]pyrimidin-2-yl]-2,6-dimethyl-phenoxy}-acetic acid] here?
A: The value was “shortening of the action potential”.

Q: What about the “Effect on resting membrane potential and action potential parameters” value ([1]; 0.3 to 10 μM) of the same compound?
A: Its value is “no significant effect”.

Q: What about the “Effect on heart rate, atrioventricular block or any other ECG parameters” value ([2]; 30 or 100 mg/kg p.o. and 10 or 30 mg/kg i.v. (infusion over 30 min)) of the same compound?
A: Its value is “No effect”.

Q: What about the “Change in blood pressure” value ([2]; at both doses) of the same compound?
A: Its value is “no significant change”.

Q: And the EC50 (pERK and pAKt; after tunicamycin injury)?
A: The EC50 was about 10 µM.

Q: What about the EC50 (pERK and pAKt; basal conditions) of the same compound?
A: The EC50 was about 3 µM.

Q: And the AUC [3]?
A: Its AUC is 41300 ng·h/mL.

Q: What about the Cmax [3] of the same compound?
A: Its Cmax is 2910 ng/mL.
